Data as given in patent US4298739A, “Novel carbostyril derivatives” (priority 1977, dated 1981).
Where “and” joins values, the source holds several entries; their conditions need not be identical. Equal values may be shown once.

Legend:
rabbit platelet = experiment: Collagen-induced aggregation in rabbit platelets (AG-II Aggregometer); type: cell-based; set-up: inhibition: dose or concentration left out as unconfirmed; settings: Oryctolagus cuniculus, Platelet, read-out: Inhibition effect on collagen induced aggregation in rabbit platelet
Method in brief: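 Rabbit citrated PRP, diluted with PPP to 300,000/mm^3 platelets for ADP or 450,000/mm^3 for collagen, was preincubated with compound 1 min at 37° C. before inducer was added. ADP at 7.5×10^-5 M or collagen supernatant in Auren Beronal buffer pH 7.35; transmittance change recorded, percent inhibition derived.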

[1] = Concentration in blood of male Wister rats; type: in vivo; settings: 30 mg/kg water suspension, 30 mg/kg; for Concentration in blood: Rat
Protocol: (§1) A water suspension of test compound was administered at the dose of 30 mg/kg to the overnight fasted male Wister rats and male beagle dogs, and after a predetermined period of time, blood was collected from said animals to obtain plasma. 2 to 3 Milliliters of 0.1 N-NaOH and 2 ml of CHCl3 were added to 1 ml of the obtained plasma, and the mixture was shaken and extracted in a shaker for 2 hours, and after centrifugal separation, the organic layer was washed with 2 ml of 0.1 N-HCl. This organic layer was then subjected to a freezing and thawing treatment, and after evaporating chloroform under nitrogen stream, the residue was redissolved in 100 μl of chloroform and spotted on a thin layer plate of "Silica Gel 60 F254 " manufactured by Merck & Co., Inc. This was developed in a chloroform: butanol mixed solvent (5:1) and determined by measuring the spots with same Rf value as the test compound according to the absorbance method by using Shimazu CS-910 Thin Layer Chromato-scanner,and therefrom the concentration (μg/ml) of test compound A in blood was determined.

[2] = Concentration in blood of male beagle dogs; type: in vivo; settings: 30 mg/kg water suspension, 30 mg/kg; for Concentration in blood: Beagle dog
Protocol: as §1

| SMILES | inhibition at 100 µM (stock) (rabbit platelet; 10^-4 mole) | inhibition at 10 µM (stock) (rabbit platelet; 10^-5 mole) | inhibition at 1 µM (stock) (rabbit platelet; 10^-6 mole) | inhibition (rabbit platelet) | Concentration in blood ([1]; 1 hr., 60 min) | Concentration in blood ([1]; 4 hr., 240 min) | Concentration in blood ([1]; 12 hr., 720 min) | concentration at 1 h ([1]; rat, plasma, 1 hr.) | concentration at 4 h ([1]; rat, plasma, 4 hr.) | concentration at 12 h ([1]; rat, plasma, 12 hr.) | Concentration in blood ([2]; 1 hr., 60 min) | Concentration in blood ([2]; 2 hr., 120 min) | Concentration in blood ([2]; 6 hr., 360 min) | Concentration in blood ([2]; 12 hr., 720 min) | concentration at 1 h ([2]; dog, plasma, 1 hr.) | concentration at 2 h ([2]; dog, plasma, 2 hr.) | concentration at 6 h ([2]; dog, plasma, 6 hr.) | concentration at 12 h ([2]; dog, plasma, 12 hr.) |
| --- | --- | --- | --- | --- | --- | --- | --- | --- | --- | --- | --- | --- | --- | --- | --- | --- | --- | --- |
| CC(=O)OC1CCC(N(C)C(=O)CCCOc2ccc3[nH]c(=O)ccc3c2)CC1 (stereo not drawn) [compound 3, 6-{3-[N-Methyl-N-(4-acetyloxycyclohexyl)aminocarbonyl]propoxy}carbostyril] | 90.8% | 84.8% | 61.9% | – | – | – | – | – | – | – | – | – | – | – | – | – | – | – |
| CN(C(=O)CCCOc1ccc2[nH]c(=O)ccc2c1)C1CCCCC1 [compound 16, 6-[3-(N-Methyl-N-cyclohexylaminocarbonyl)propoxy]carbostyril] | – | – | – | 90.5% | 1060 ng/mL and 880 ng/mL | 710 ng/mL and 830 ng/mL | 730 ng/mL and 780 ng/mL | 900 ng/mL | 1100 ng/mL | 640 ng/mL | 130 ng/mL | 310 ng/mL | 210 ng/mL | 70 ng/mL | 230 ng/mL | 280 ng/mL | 110 ng/mL | 40 ng/mL |
